Source: patent US12410164B2, “Heterocyclic compounds and medical use thereof” (FONDAZIONE TELETHON, priority 2018, dated 2025)
Entries after “also recorded” stand apart in the source; their conditions may differ.

Assays:
Format in all cases: cell-based
[1] = system: G542X-CFTR; experiment: HS-YFP assay in null CFBE41o− cells transfected with G542X-CFTR; details: G418 0.5 mg/ml alone, 24 hr
Protocol: To assess the function and pharmacological sensitivity of G542X-CFTR mutant, inventors used the null version of CFBE41o− cells, i.e. cells with negligible expression of endogenous CFTR and without HS-YFP. Such cells were transiently transfected with the plasmid coding for HS-YFP alone or in combination with: empty plasmid, plasmid coding for wild type CFTR, or plasmid coding for G542X-CFTR. For transfection, cells were seeded in 96-well microplates (30,000 cells/well) in 150 μl of antibiotic-free culture medium. After 24 hours, cells were transfected with the desired plasmids. For each well, 0.2 μg of total plasmid DNA and 0.5 μl of Lipofectamine 2000 (Invitrogen) were first pre-mixed in 50 μl of OPTIMEM (Invitrogen) to generate transfection complexes (60 minutes at room temperature), and then added to the cells. After 24 hour, the complexes were removed by replacement with fresh culture medium. The HS-YFP functional assay was performed after further 24 hours.
To assess the ability of compounds of present invention to improve the rescue of premature stop codon (class I) mutations, we carried out experiments on G542X-CFTR (FIG. 7). Null CFBE41o− cells, devoid of endogenous CFTR expression, were transiently transfected with empty, wild type CFTR or G542X-CFTR plasmids. All cells also received the HS-YFP plasmid to allow functional determination of CFTR-dependent anion transport. […] Where indicated, cells with G542X-CFTR were also treated with G418 (0.5 mg/ml) for 24 hr to induce readthrough of the stop codon mutation, with and without correctors (VX-809 and/or PP028, labeled as VX and PP). […] The activity resulting from wild type CFTR is also shown for comparison.

[2] = biological target: T1, F508del-CFTR (Homo sapiens, UniProt P13569, DEL508-508); experiment: Analysis of F508del-CFTR maturation by immunoblot in CFBE41o− cells; set-up: expressed in transfected cells; host or cells: CFBE41o- cells with expression of F508del-CFTR and HS-YFP (generated as in Sondo et al. 2011); details: compound 10 μM plus VX-809 1 μM, 24 hr
T1 sequence (P13569 with tags, fused parts or gaps DEL508-508): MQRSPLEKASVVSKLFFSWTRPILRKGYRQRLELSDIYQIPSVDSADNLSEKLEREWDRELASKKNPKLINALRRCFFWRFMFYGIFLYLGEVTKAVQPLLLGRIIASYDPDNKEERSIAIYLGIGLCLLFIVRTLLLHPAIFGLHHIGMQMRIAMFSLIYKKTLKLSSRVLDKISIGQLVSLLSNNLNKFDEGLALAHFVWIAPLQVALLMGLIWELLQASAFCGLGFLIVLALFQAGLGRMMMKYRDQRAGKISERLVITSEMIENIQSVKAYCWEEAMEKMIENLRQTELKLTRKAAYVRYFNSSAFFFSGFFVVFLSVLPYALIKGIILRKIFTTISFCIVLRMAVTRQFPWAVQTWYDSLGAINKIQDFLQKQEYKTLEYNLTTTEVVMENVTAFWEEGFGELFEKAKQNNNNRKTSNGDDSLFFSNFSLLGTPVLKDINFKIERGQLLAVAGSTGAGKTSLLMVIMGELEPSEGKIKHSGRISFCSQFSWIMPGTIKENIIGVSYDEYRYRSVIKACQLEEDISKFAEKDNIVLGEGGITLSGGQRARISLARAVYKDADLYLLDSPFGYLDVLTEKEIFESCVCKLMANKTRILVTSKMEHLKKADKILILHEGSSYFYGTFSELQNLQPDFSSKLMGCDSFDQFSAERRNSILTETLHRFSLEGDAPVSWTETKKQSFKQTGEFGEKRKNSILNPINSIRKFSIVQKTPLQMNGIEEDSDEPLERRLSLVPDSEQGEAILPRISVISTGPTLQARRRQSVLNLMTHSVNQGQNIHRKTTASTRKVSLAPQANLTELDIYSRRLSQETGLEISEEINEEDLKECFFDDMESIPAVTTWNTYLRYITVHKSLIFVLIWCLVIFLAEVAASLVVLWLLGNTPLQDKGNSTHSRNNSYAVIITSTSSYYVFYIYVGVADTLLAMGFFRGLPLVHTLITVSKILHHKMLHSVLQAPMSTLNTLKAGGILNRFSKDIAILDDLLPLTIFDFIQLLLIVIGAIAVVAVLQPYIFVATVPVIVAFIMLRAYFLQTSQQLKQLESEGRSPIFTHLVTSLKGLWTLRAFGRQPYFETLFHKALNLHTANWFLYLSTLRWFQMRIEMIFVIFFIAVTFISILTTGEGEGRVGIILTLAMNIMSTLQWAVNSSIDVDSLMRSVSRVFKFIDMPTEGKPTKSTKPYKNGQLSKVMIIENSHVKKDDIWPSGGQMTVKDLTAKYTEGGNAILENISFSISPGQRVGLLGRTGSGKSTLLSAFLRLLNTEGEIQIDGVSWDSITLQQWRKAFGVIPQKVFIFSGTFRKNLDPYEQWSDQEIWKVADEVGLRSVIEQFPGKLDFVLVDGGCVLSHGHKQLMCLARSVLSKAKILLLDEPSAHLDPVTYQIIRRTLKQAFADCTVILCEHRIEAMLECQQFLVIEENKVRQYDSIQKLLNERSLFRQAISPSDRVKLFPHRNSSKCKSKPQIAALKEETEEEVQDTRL
Protocol: CFBE41o− cells were grown to confluence on 60-mm diameter dishes and lysed in RIPA buffer containing a complete protease inhibitor (Roche; cat. n. 11697498001). Cell lysates were centrifuged at 12000 rpm at 4° C. for 10 min. Supernatant protein concentration was calculated using the BCA assay (Euroclone; cat. n. EMP014500) following the manufacturer's instructions. Equal amounts of total protein content (30 μg) were separated onto 10% Criterion TGX Precast gels (Bio-rad laboratories Inc.; cat. n. 4561033), transferred to nitrocellulose membrane with Trans-Blot Turbo system (Bio-rad Laboratories Inc.) and analyzed by Western blotting. Primary antibody for CFTR was anti-CFTR 596 (University of North Carolina at Chapel Hill, and Cystic Fibrosis Foundation Therapeutics, see Cui L, et al. J. Mol Biol 2007, 365, 981-994) at 1:5000 dilution. As secondary antibody, anti-mouse HRP-conjugated Ab 97023 (Abcam) was used at 1:10000 dilution. Results were subsequently visualized by chemiluminescence using the SuperSignal West Femto Substrate (Thermo Scientific) and the Molecular Imager ChemiDoc XRS System.
To analyze the mechanism of action of the compounds of the invention, two types of experiments were carried out. In the first type of experiment, the electrophoretic mobility of F508del-CFTR protein was determined by immunoblot assay. This is a frequently used method to assess the effect of correctors at the protein level. In control conditions, F508del-CFTR migrates predominantly as a single band of 150 kDa called “band B”. This is the immature form of the protein residing in the endoplasmic reticulum. When the protein folding and stability is improved by correctors, an additional band appears at higher molecular weight (170 kDa). This is the so-called band C, which represents the mature form of the CFTR protein that has reached the Golgi compartment and acquired full glycosylation.

[3] = biological target: T1, F508del-CFTR; experiment: HS-YFP kinetic fluorescence (iodide quenching rate) assay in CFBE41o− cells; set-up: expressed in transfected cells; host or cells: CFBE41o- cells with expression of F508del-CFTR and HS-YFP (generated as in Sondo et al. 2011)
How it was run: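 CFBE41o- cells co-expressing F508del-CFTR and HS-YFP, treated 24 h with compound (0.1-0.2% DMSO), then stimulated with 20 μM forskolin plus 50 μM genistein. Fluorescence was read for 14 s during NaI injection. Background-subtracted, normalized traces were fitted exponentially to give maximum quenching rate (QR).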

AI (%) additivity index ([3]; Table 1, compound at 10 μM plus VX-809, (QRTOT − QRVX)/QRVX, HS-YFP assay) | structure-activity comparison of corrector potency/activity ([3]; relative to the analogue) | SMILES | CFTR activity (QR) in G542X-CFTR cells [1] | band C (mature form) expression versus VX-809 alone [2]
 |  | CN[C@@H]1[C@@H](O)[C@@H](O[C@@H]2[C@@H](O)[C@H](O[C@H]3O[C@H]([C@@H](C)O)[C@@H](O)[C@H](O)[C@H]3N)[C@@H](N)C[C@H]2N)OC[C@]1(C)O [G418, reference compound] | modest but significant increase in CFTR activity | 
261% | Increased activity | Cc1ccc(Cn2c(C(=O)OC(C)C)c(Br)c3c2-c2[nH]c(=O)c(S(=O)(=O)c4ccccc4)cc2CC3)cc1 [PP034, Propan-2-yl 7-(benzenesulfonyl)-3-bromo-1-[(4-methylphenyl)methyl]-8-oxo-4,5,8,9-tetrahydro-1H-pyrrolo[3,2-h]quinoline-2-carboxylate] |  | markedly enhances the abundance of the mature form of the protein; also recorded: marked increase in band C expression
